Molecular target: T1, GR (Homo sapiens, UniProt P04150)
T1 construct: expressed in transfected cells; host or cells: CHO-K1 (CHO-K1-GR-MMTV-Luc reporter cells)
T1 sequence (P04150 1-777): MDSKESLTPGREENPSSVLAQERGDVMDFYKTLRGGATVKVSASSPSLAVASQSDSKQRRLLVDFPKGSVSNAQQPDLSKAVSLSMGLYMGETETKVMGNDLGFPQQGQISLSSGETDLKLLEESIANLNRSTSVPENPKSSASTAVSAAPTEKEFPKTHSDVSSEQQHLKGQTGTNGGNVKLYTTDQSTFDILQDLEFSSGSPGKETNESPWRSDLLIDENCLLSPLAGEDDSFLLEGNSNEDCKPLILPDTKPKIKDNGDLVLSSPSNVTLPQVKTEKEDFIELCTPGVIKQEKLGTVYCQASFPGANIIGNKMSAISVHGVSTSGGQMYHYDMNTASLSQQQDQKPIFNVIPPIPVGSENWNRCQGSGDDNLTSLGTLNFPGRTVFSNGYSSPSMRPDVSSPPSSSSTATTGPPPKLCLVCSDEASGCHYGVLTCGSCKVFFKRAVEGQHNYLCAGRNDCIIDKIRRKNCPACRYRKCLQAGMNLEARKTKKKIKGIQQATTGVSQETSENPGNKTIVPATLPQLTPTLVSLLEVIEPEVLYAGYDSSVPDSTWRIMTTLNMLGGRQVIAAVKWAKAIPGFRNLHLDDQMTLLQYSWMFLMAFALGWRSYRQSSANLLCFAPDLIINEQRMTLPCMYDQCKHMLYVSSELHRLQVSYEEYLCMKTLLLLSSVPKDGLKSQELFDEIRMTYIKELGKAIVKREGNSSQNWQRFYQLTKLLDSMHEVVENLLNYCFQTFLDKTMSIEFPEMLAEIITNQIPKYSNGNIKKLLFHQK
Test: In Vitro GR Luciferase Reporter Assay (antagonist assay)
Type: cell-based
Conditions: CHO-K1-GR-MMTV-Luc reporter cells, 10 nM Dexamethasone, 18-24 hours
Protocol: Example A: In Vitro GR Luciferase Reporter Assay
Cell Line: CHO-K1-GR-MMTV-Luc reporter cells
Culture Media: DMEM (with phenol red)+10% FBS
Assay Media: DMEM (without phenol red)+10% CSS
Culture CHO-K1-GR-MMTV-Luc reporter cells in T175 flasks in Culture Media at conditions less than 90% confluence.
Using Bravo (Agilent) liquid handler:
200× DMSO 1:3 serial dilutions of control and test compounds in 96-well non-sterile V bottom plate in DMSO, 12 points for each compound were prepared.
Prepared 5× compound serial dilutions: Add 97.5 μL/well of Assay Media into 96-well non-sterile V bottom plate then added 2.5 ul of 200× concentration of compounds and mix well.
Seeded cells for Antagonist Assay: 5200 CHO-K1-GR-MMTV-Luc reporter cells were seeded in Greiner #781080 flat clear bottom 384-well white TC plate in 20 ul of Assay Media containing 12.5 nM Dexamethasone (final concentration=10 nM).
Added compounds: 5 μl of 5× compounds were added to appropriate wells and followed with a quick spin (1000 rpm, 10 sec) to bring media and cells to the bottom of plate. The plates were covered with SealMate film to avoid evaporation and placed in 37° C. incubator for approximately 18-24 hours.
Read plates: Equilibrate appropriate amount of Promega OneGlo luciferase reagent to room temperature. Remove the plates from incubator and add 25 uL of OneGlo reagent/well by Bravo and read the plates on Tecan Spark plate reader within 15 minutes.
The ability of the compounds disclosed herein to inhibit GR activity was quantified and the respective IC50 value was determined. Table 1 provides the cellular IC50 values of compounds disclosed herein.

IC50 [nM]	Structure (SMILES)
≤ 100	CC(C)N([C@H]1CCC2=Cc3c(cnn3-c3ccc(F)nc3)C[C@]2(C(=O)c2cc(C(F)(F)F)ccn2)C1)S(=O)(=O)c1cnn(C)c1 [Example 69]
≤ 100	Cn1cnc(S(=O)(=O)N(C2CC(F)(F)C2)[C@H]2CCC3=Cc4c(cnn4-c4ccc(F)nc4)C[C@]3(C(=O)c3cc(F)ccn3)C2)n1 [Example 70]
> 1000	Cn1cc(-n2ncc3c2C=C2CC[C@H](N(C4CC4)S(=O)(=O)c4ccc(F)cc4)C[C@@]2(C(=O)c2cc(C(F)(F)F)ccn2)C3)ccc1=O [Example 73]
≤ 100	Cn1cc(S(=O)(=O)N(C2CC2)[C@H]2CCC3=Cc4c(cnn4-c4ccc(F)cn4)C[C@]3(C(=O)c3cc(C(F)(F)F)ccn3)C2)cn1 [Example 74]
≤ 100	Cn1cnc(S(=O)(=O)N(C2CC(F)(F)C2)[C@H]2CCC3=Cc4c(cnn4-c4ccc(F)nc4)C[C@]3(C(=O)c3cc(C(C)(C)C)ccn3)C2)n1 [Example 75]
≤ 100	Cn1cnc(S(=O)(=O)N(CC(F)(F)F)[C@H]2CCC3=Cc4c(cnn4-c4ccc(F)nc4)C[C@]3(C(=O)c3cc(F)ccn3)C2)n1 [Example 78]
≤ 100	Cn1cnc(S(=O)(=O)N(CC(F)(F)F)[C@H]2CCC3=Cc4c(cnn4-c4ccc(F)cc4)C[C@]3(C(=O)c3cc(F)ccn3)C2)c1 [Example 82]
≤ 100	C[C@H]([C@H]1CCC2=Cc3c(cnn3-c3ccc(F)cc3)C[C@]2(C(=O)c2cc(F)ccn2)C1)S(=O)(=O)c1ncn(C)n1 [Example 83]
≤ 100	CC(C)N([C@H]1CCC2=Cc3c(cnn3-c3ccc(F)nc3)C[C@]2(C(=O)c2cc(Cl)ccn2)C1)S(=O)(=O)c1ccn(C)n1 [Example 85]
≤ 100	C[C@H]([C@H]1CCC2=Cc3c(cnn3-c3ccc(F)cc3)C[C@]2(C(=O)c2cc(Cl)ccn2)C1)S(=O)(=O)c1ncn(C)n1 [Example 86]
≤ 100	CC(C)N([C@H]1CCC2=Cc3c(cnn3-c3ccc(F)cc3)C[C@]2(C(=O)c2cc(F)ccn2)C1)S(=O)(=O)c1cn(C)cn1 [Example 87]
≤ 100	Cn1ccc(S(=O)(=O)C(C)(C)[C@H]2CCC3=Cc4c(cnn4-c4ccc(F)cc4)C[C@]3(C(=O)c3cc(C(F)(F)F)ccn3)C2)n1 [Example 88]
≤ 100	Cn1cnc(S(=O)(=O)[C@H]2CCC3=Cc4c(cnn4-c4ccc(F)cc4)C[C@]3(C(=O)c3ccc(F)cn3)C2)n1 [Example 91]
≤ 100	CCn1cnc(S(=O)(=O)[C@H]2CCC3=Cc4c(cnn4-c4ccc(F)cc4)C[C@]3(C(=O)c3ccc(C(F)(F)F)cn3)C2)n1 [Example 93]
≤ 100	O=C(c1cc(F)ccn1)[C@]12Cc3cnn(-c4ccc(F)cc4)c3C=C1CC[C@H](N(C1CC(F)(F)C1)S(=O)(=O)c1cn[nH]c1)C2 [Example 99]

Further lines, the compound ahead of its results:

Structure (SMILES)	IC50 [nM]
Cn1cc(S(=O)(=O)N(C2CC(F)(F)C2)[C@H]2CCC3=Cc4c(cnn4-c4ccc(F)nc4)C[C@]3(C(=O)c3cc(F)ccn3)C2)cn1 [Example 71]	≤ 100
Cn1cc(S(=O)(=O)N(C2CC(F)(F)C2)[C@H]2CCC3=Cc4c(cnn4-c4ccc(F)nc4)C[C@]3(C(=O)c3cc(C(C)(C)C)ccn3)C2)cn1 [Example 76]	≤ 100
CC([C@H]1CCC2=Cc3c(cnn3-c3ccc(F)cc3)C[C@]2(C(=O)c2cc(F)ccn2)C1)S(=O)(=O)c1ncn(C)n1 (stereo partly drawn) [Example 77]	≤ 100
CC(C)N([C@H]1CCC2=Cc3c(cnn3-c3ccc(F)cc3)C[C@]2(C(=O)c2cc(F)ccn2)C1)S(=O)(=O)c1cnn(C)c1 [Example 79]	≤ 100
Cn1cc(S(=O)(=O)N(C2CC2)[C@H]2CCC3=Cc4c(cnn4-c4ccc(F)cc4)C[C@]3(C(=O)c3cc(F)ccn3)C2)cn1 [Example 80]	≤ 100
CC(C)N([C@H]1CCC2=Cc3c(cnn3-c3ccc(F)cc3)C[C@]2(C(=O)c2cc(F)ccn2)C1)S(=O)(=O)c1ncn(C)n1 [Example 81]	≤ 100
CC(C)N([C@H]1CCC2=Cc3c(cnn3-c3ccc(F)nc3)C[C@]2(C(=O)c2cc(F)ccn2)C1)S(=O)(=O)c1ccn(C)n1 [Example 84]	≤ 100
Cn1ccc(S(=O)(=O)N(C2CC2)[C@H]2CCC3=Cc4c(cnn4-c4ccc(F)nc4)C[C@]3(C(=O)c3cc(F)ccn3)C2)n1 [Example 89]	≤ 100
Cn1cnc(S(=O)(=O)[C@H]2CCC3=Cc4c(cnn4-c4ccc(F)cc4)C[C@]3(C(=O)c3cc(C(F)F)ccn3)C2)n1 [Example 90]	≤ 100
Cn1cnc(S(=O)(=O)[C@H]2CCC3=Cc4c(cnn4-c4ccc(F)cc4)C[C@]3(C(=O)c3ccc(C(F)F)cn3)C2)n1 [Example 92]	≤ 100
CCN([C@H]1CCC2=Cc3c(cnn3-c3ccc(F)nc3)C[C@]2(C(=O)c2cc(F)ccn2)C1)S(=O)(=O)c1ncn(C)n1 [Example 94]	≤ 100
O=C(c1ccc(C2CC2)cn1)[C@]12Cc3cnn(-c4ccc(F)cc4)c3C=C1CC[C@H](S(=O)(=O)c1ncn(CC(F)(F)F)n1)C2 [Example 95]	≤ 100
Cn1cnc(S(=O)(=O)N(C2CC2)[C@H]2CCC3=Cc4c(cnn4-c4ccc(F)cc4)C[C@]3(C(=O)c3cc4c(cn3)OCCO4)C2)n1 [Example 96]	≤ 100
Cn1cnc(S(=O)(=O)[C@H]2CCC3=Cc4c(cnn4-c4ccc(F)cc4)C[C@]3(C(=O)c3cc4c(cn3)OCCO4)C2)n1 [Example 97]	≤ 100
Cn1cc(S(=O)(=O)N[C@H]2CCC3=Cc4c(cnn4-c4ccc(F)cc4)C[C@]3(C(=O)c3cc(F)ccn3)C2)cn1 [Example 98]	100 to 1000

Reference: patent US20220079924A1, “GLUCOCORTICOID RECEPTOR MODULATORS” (ORIC Pharmaceuticals, Inc., priority 2018, published 2022)
